Like-named read-outs stand apart in the source and are kept apart here.
Columns and labels:
[1] = Reducing power assay (FRAC, Fe3+ to Fe2+); details: 0-1 mg/mL, absorbance 700 nm
Procedure, shortened: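 Oyaizu method: compound (0–1 mg/mL) incubated with 0.2 M phosphate buffer pH 6.6 and 1% K3Fe(CN)6 at 50 °C for 20 min, then TCA, centrifugation, and 0.1% FeCl3 added to supernatant. Absorbance read at 700 nm; EC50 expressed in mM, BHT as reference.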

HCT-116 cells = assay: Cell viability (cytotoxicity, LDH release) assay; type: cell-based; details: Homo sapiens, 24 h; for viability at 100 µg/mL: read-out: percent of viable cells
Procedure, shortened: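 Human colorectal HCT-116 cells exposed to compounds at 10, 25, 50 and 100 µg/mL in DMEM with 10% FBS for 24 h at 37 °C. LDH released into the supernatant measured at 600 nm; viability given as % of untreated control OD (mean ± SD, n = 3), 0.1% Triton X-100 as positive control.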

[2] = test system: CDK2 gene in HCT-116 cells; assay: qRT-PCR expression profile of the CDK2 gene in HCT-116 cells; type: cell-based, human; details: 24 h, relative to untreated cells (given as decreased x-fold)
Description: Second, the expression profiles of the CDK2 gene in HCT-116 cells treated with compounds 4d and 4k were determined. The results were compared with the positive control (cells treated with the well-known cytotoxic drug 5-fluorouracil) and the negative control (untreated cells).
Primers specific for the cyclin-dependent kinase-2 (CDK2) and caspase-3 genes were designed using primer blast (https://www.ncbi.nlm.nih.gov/tools/primer-blast/, accessed on 31 October 2021) or primer3 (https://primer3.ut.ee/, accessed on 31 October 2021) software. The selected genes covered the two main groups of the cyclin-dependent kinase-2 (CDK2) gene and the caspase-3 gene. Primers were used in RT-qPCR analysis to amplify fragments of 100–200 bp in length (Table 7).
Total RNA was extracted from each cell culture flask using the RNeasy extraction kit (RNeasy micro kit, cat. no. 74004). Up to 1 × 10^6 cells, depending on the cell line, were disrupted in buffer RLT and homogenized and disrupted. Ethanol was then added to the lysate, creating conditions that promote the selective binding of RNA to the RNeasy membrane. […] The amount of extracted RNA was quantified by estimating the absorbance at 260 nm. The purity of the RNA was checked by measuring the ratio of the absorbance at 260 and 280 nm, where a ratio ranging from 1.8 to 2.0 was taken to be pure. […]
Quantitative real-time PCR was carried out with the Thermal Cycler Rotorgene Real-Time System II (Rotorgene, South Korea) with the SYBR kit. […]
The relative expression levels through the average cycle threshold (CT) were successfully detected. Average CT values were calculated from the triplicate experiment conducted for each gene; the CT value was detected by subtracting the average CT value of genes from the CT value of actin and GAPDH genes. The relative expression levels of the target genes were calculated using the ΔΔ Ct method and the reference genes GAPDH for the cancer cell line. Finally, a fold change equation […] was used to estimate relative expression levels, while the standard deviation was calculated from the replicated experimental data.

[3] = read-out: Mean IC50 (µM) of cytotoxicity
[4] = read-out: Mean IC50 (µg/mL) of cytotoxicity

| Compound | EC50 [1] | viability at 100 µg/mL (HCT-116 cells) | IC50 (HCT-116 cells; [3]) | IC50 (HCT-116 cells; [4]) | CDK2 transcript level, fold [2] |
| --- | --- | --- | --- | --- | --- |
| COc1cc(C2C(C#N)=C(N)OC(C)=C2C(=O)OCc2ccccc2)cc(OC)c1OC (stereo not shown) [4d, 6-Amino-5-cyano-2-methyl-4-(3,4,5-trimethoxy-phenyl)-4H-pyran-3-carboxylic acid benzyl ester] | 149 ± 16 µM | 11 to 32.5% | 75.1 ± 5.09 µM | 32.8 ± 2.22 µg/mL | 0.50 fold |
| CC1=C(C(=O)OCc2ccccc2)C(c2ccc(C#N)cc2)C(C#N)=C(N)O1 (stereo not shown) [4k, 6-Amino-5-cyano-4-(4-cyano-phenyl)-2-methyl-4H-pyran-3-carboxylic acid benzyl ester] | 1560 ± 102 µM | 11 to 32.5% | 85.9 ± 7.61 µM | 31.9 ± 2.83 µg/mL | 0.45 fold |

— article PMC9317316, “Synthesis and Evaluation of Some New 4H-Pyran Derivatives as Antioxidant, Antibacterial and Anti-HCT-116 Cells of CRC, with Molecular Docking, Antiproliferative, Apoptotic and ADME Investigations” (Pharmaceuticals, 2022)
